Measured values from patent US9067977B2, “Peptides derivatized with A-B-C-D- and their therapeutical use” (Novo Nordisk A/S, priority 2007, dated 2015).
Starred links: 1 amine or outer side, 2 acyl side, 3 side chain; linkers in the order of their positions; H or OH if unused. Non-standard residues stand in square brackets, D forms with d. Residues, ends and D or L forms follow the SMILES beside them. Groups on a side chain read outwards from the residue. *: point of attachment. X1 = O=C(CCCCCCCCCCCCCCCc1nnn[nH]1)NS(=O)(=O)CCCC(=O)*; PEG12 = NCCOCCOCCOCCOCCOCCOCCOCCOCCOCCOCCOCCOCCC(=O)O; C20 diacid = O=C(O)CCCCCCCCCCCCCCCCCCC(=O)*; C18 diacid = O=C(O)CCCCCCCCCCCCCCCCC(=O)*; d(βAsp) = O=C(O)[C@@H](CC(=O)[*:2])N[*:1]; γGlu = O=C(O)[C@H](CCC(=O)[*:2])N[*:1]; 2Nal = N[C@@H](Cc1ccc2ccccc2c1)C(=O)O; Desaminohistidyl = O=C(CCc1c[nH]cn1)*; AEEA = NCCOCCOCC(=O)O; Aib = CC(C)(N)C(=O)O; Inp = O=C(O)C1CCNCC1; GABA = NCCCC(=O)O

Biological target: human serum albumin (HSA) (Homo sapiens, UniProt P02768)
Test: Albumin binding affinity, competition scintillation proximity assay
Settings: for EC50 at 20 h: human, biotinylated human serum albumin on streptavidin-SPA beads, pH 7.4
Method: Streptavidin-SPA beads (GE Healthcare RPNQ0009) were incubated with biotinylated HSA for 5 hours. The beads were washed with buffer to remove unbound HSA. […] After 20 hours of gentle rocking at room temperature the plates were centrifuged and counted on a TopCounter.

Sequence of human serum albumin (HSA) (P02768 25-609): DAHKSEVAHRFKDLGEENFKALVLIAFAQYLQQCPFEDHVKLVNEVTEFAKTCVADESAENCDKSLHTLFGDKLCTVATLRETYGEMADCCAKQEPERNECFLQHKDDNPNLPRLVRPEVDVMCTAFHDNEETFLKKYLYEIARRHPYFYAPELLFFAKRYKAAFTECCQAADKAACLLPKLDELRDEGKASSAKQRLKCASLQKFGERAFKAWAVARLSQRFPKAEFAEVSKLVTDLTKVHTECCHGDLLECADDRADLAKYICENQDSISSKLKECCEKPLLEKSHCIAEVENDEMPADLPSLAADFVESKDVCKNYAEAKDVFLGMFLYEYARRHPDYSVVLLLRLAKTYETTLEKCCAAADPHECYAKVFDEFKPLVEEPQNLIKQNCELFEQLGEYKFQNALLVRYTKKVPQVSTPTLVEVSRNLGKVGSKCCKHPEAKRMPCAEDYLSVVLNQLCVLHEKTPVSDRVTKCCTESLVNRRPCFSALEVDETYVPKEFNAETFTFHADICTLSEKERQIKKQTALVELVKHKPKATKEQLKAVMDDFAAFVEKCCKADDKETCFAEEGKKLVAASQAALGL

## CC[C@H](C)[C@H](NC(=O)[C@H](Cc1ccccc1)NC(=O)[C@H](CCC(=O)O)NC(=O)[C@H](CCCNC(=N)N)NC(=O)[C@H](C)NC(=O)[C@H](C)NC(=O)[C@H](CCC(N)=O)NC(=O)[C@H](CCC(=O)O)NC(=O)[C@H](CCC(=O)O)NC(=O)[C@H](CC(C)C)NC(=O)[C@H](Cc1ccc(O)cc1)NC(=O)[C@H](CO)NC(=O)[C@H](CO)NC(=O)[C@@H](NC(=O)[C@H](CC(=O)O)NC(=O)[C@H](CO)NC(=O)[C@@H](NC(=O)[C@H](Cc1ccccc1)NC(=O)[C@@H](NC(=O)CNC(=O)[C@H](CCC(=O)O)NC(=O)[C@H](C)NC(=O)CCc1c[nH]cn1)[C@@H](C)O)[C@@H](C)O)C(C)C)C(=O)N[C@@H](C)C(=O)N[C@@H](Cc1c[nH]c2ccccc12)C(=O)N[C@@H](CC(C)C)C(=O)N[C@H](C(=O)N[C@@H](CCCNC(=N)N)C(=O)NCC(=O)N[C@@H](CCCNC(=N)N)C(=O)N[C@@H](CCCCNC(=O)COCCOCCNC(=O)COCCOCCNC(=O)CC[C@H](NC(=O)[C@H]1CC[C@H](CNC(=O)CCCCCCCCCCCCCCCCCCC(=O)O)CC1)C(=O)O)C(N)=O)C(C)C [Example 24, N-epsilon37-[2-(2-{2-[2-(2-{2-[(S)-4-Carboxy-4-({trans-4-[(19-carboxy-nonadecanoylamino)methyl]cyclohexanecarbonyl}amino)butyrylamino]ethoxy}ethoxy)acetylamino]ethoxy}ethoxy)acetyl][DesaminoHis7,Glu22,Arg26,Arg34,Lys37]GLP-1-(7-37)amide]
  EC50: 800 to 2000 nM

## CC[C@H](C)[C@H](NC(=O)[C@H](Cc1ccccc1)NC(=O)[C@H](CCC(=O)O)NC(=O)[C@H](CCCCNC(=O)COCCOCCNC(=O)CC[C@H](NC(=O)CC[C@H](NC(=O)CCCNC(=O)CCCS(=O)(=O)NC(=O)CCCCCCCCCCCCCCCc1nnn[nH]1)C(=O)O)C(=O)O)NC(=O)[C@H](C)NC(=O)[C@H](C)NC(=O)[C@H](CCC(N)=O)NC(=O)CNC(=O)[C@H](CCC(=O)O)NC(=O)[C@H](CC(C)C)NC(=O)[C@H](Cc1ccc(O)cc1)NC(=O)[C@H](CO)NC(=O)[C@H](CO)NC(=O)[C@@H](NC(=O)[C@H](CC(=O)O)NC(=O)[C@H](CO)NC(=O)[C@@H](NC(=O)[C@H](Cc1ccccc1)NC(=O)[C@@H](NC(=O)CNC(=O)[C@H](CCC(=O)O)NC(=O)C(C)(C)NC(=O)[C@@H](N)Cc1c[nH]cn1)[C@@H](C)O)[C@@H](C)O)C(C)C)C(=O)N[C@@H](C)C(=O)N[C@@H](Cc1c[nH]c2ccccc12)C(=O)N[C@@H](CC(C)C)C(=O)N[C@H](C(=O)N[C@@H](CCCNC(=N)N)C(=O)O)C(C)C [Example 36, N-epsilon26-[2-(2-{2-[(S)-4-Carboxy-4-((S)-4-carboxy-4-{4-[4-(16-(1H-tetrazol-5-yl)hexadecanoylsulfamoyl)butyrylamino]butyrylamino}butyrylamino)butyrylamino]ethoxy}ethoxy)acetyl][Aib8,Arg34]GLP-1-(7-34)]
  EC50 at 20 h: 100 to 150 nM

## CC[C@H](C)[C@H](NC(=O)[C@H](Cc1ccccc1)NC(=O)[C@H](CCC(=O)O)NC(=O)[C@H](CCCCNC(=O)COCCOCCNC(=O)COCCOCCNC(=O)CC[C@H](NC(=O)C1CCN(C(=O)CCCCCCCCCCCCCCCCCCC(=O)O)CC1)C(=O)O)NC(=O)[C@H](C)NC(=O)[C@H](C)NC(=O)[C@H](CCC(N)=O)NC(=O)[C@H](CCC(=O)O)NC(=O)[C@H](CCC(=O)O)NC(=O)[C@H](CC(C)C)NC(=O)[C@H](Cc1ccc(O)cc1)NC(=O)[C@H](CO)NC(=O)[C@H](CO)NC(=O)[C@@H](NC(=O)[C@H](CC(=O)O)NC(=O)[C@H](CO)NC(=O)[C@@H](NC(=O)[C@H](Cc1ccccc1)NC(=O)[C@@H](NC(=O)CNC(=O)[C@H](CCC(=O)O)NC(=O)C(C)(C)NC(=O)[C@@H](N)Cc1c[nH]cn1)[C@@H](C)O)[C@@H](C)O)C(C)C)C(=O)N[C@@H](C)C(=O)N[C@@H](Cc1c[nH]c2ccccc12)C(=O)N[C@@H](CC(C)C)C(=O)N[C@H](C(=O)N[C@@H](CCC(N)=O)C(=O)NCC(=O)N[C@@H](CCCNC(=N)N)C(=O)NCC(=O)O)C(C)C [Example 69] (H-H[Aib]EGTFTSDVSSYLEEQAAK([AEEA-AEEA-γGlu-Inp-C20 diacid])EFIAWLVQGRG-OH)
  EC50: 100 to 150 nM

## CC[C@H](C)[C@H](NC(=O)[C@H](Cc1ccccc1)NC(=O)[C@H](CCC(=O)O)NC(=O)[C@H](CCCNC(=N)N)NC(=O)[C@H](C)NC(=O)[C@H](C)NC(=O)[C@H](CCC(N)=O)NC(=O)[C@H](CCC(=O)O)NC(=O)[C@H](CCC(=O)O)NC(=O)[C@H](CC(C)C)NC(=O)[C@H](Cc1ccc(O)cc1)NC(=O)[C@H](CO)NC(=O)[C@H](CO)NC(=O)[C@@H](NC(=O)[C@H](CC(=O)O)NC(=O)[C@H](CO)NC(=O)[C@@H](NC(=O)[C@H](Cc1ccccc1)NC(=O)[C@@H](NC(=O)CNC(=O)[C@H](CCC(=O)O)NC(=O)C(C)(C)NC(=O)[C@@H](N)Cc1c[nH]cn1)[C@@H](C)O)[C@@H](C)O)C(C)C)C(=O)N[C@@H](CCC(=O)O)C(=O)N[C@@H](Cc1c[nH]c2ccccc12)C(=O)N[C@@H](CC(C)C)C(=O)N[C@H](C(=O)N[C@@H](CCCCN)C(=O)NCC(=O)N[C@@H](CCCNC(=N)N)C(=O)N1CCC[C@H]1C(=O)N[C@@H](CCCCNC(=O)CCOCCOCCOCCOCCOCCOCCOCCOCCOCCOCCOCCOCCNC(=O)CC[C@H](NC(=O)CC[C@H](NC(=O)CCCNC(=O)CCCS(=O)(=O)NC(=O)CCCCCCCCCCCCCCCc1nnn[nH]1)C(=O)O)C(=O)O)C(=O)O)C(C)C [Example 52] (H-H[Aib]EGTFTSDVSSYLEEQAAREFIEWLVKGRPK([PEG12-γGlu-γGlu-GABA-X1])-OH)
  EC50: 300 to 800 nM

## CC[C@H](C)[C@H](NC(=O)[C@H](Cc1ccc2ccccc2c1)NC(=O)[C@H](CCC(=O)O)NC(=O)[C@H](CCCNC(=N)N)NC(=O)[C@H](C)NC(=O)[C@H](C)NC(=O)[C@H](CCC(N)=O)NC(=O)CNC(=O)[C@H](CCC(=O)O)NC(=O)[C@H](CCCCNC(=O)COCCOCCNC(=O)COCCOCCNC(=O)C[C@@H](NC(=O)C1CCN(C(=O)CCCCCCCCCCCCCCCCC(=O)O)CC1)C(=O)O)NC(=O)[C@H](Cc1ccc(O)cc1)NC(=O)[C@H](CO)NC(=O)[C@H](CO)NC(=O)[C@@H](NC(=O)[C@H](CC(=O)O)NC(=O)[C@H](CO)NC(=O)[C@@H](NC(=O)[C@H](Cc1ccccc1)NC(=O)[C@@H](NC(=O)CNC(=O)[C@H](CCC(=O)O)NC(=O)C(C)(C)NC(=O)[C@@H](N)Cc1c[nH]cn1)[C@@H](C)O)[C@@H](C)O)C(C)C)C(=O)N[C@@H](CCC(=O)O)C(=O)N[C@@H](Cc1c[nH]c2ccccc12)C(=O)N[C@@H](CC(C)C)C(=O)N[C@H](C(=O)N[C@@H](CCCCN)C(=O)NCC(=O)N[C@@H](CCCNC(=N)N)C(=O)NCC(N)=O)C(C)C [Example 11, N-ε^20({2-[2-(2-{2-[2-((R)-3-carboxy-3-{[1-(17-carboxyheptadecanoyl)piperidine-4-carbonyl]amino}propionylamino)ethoxy]ethoxy}acetylamino)ethoxy]ethoxy}acetyl) [Aib^8,Lys^20,Arg^26,2-Naphtylalanine^28, Glu^30]GLP-1 (7-37)amide] (H-H[Aib]EGTFTSDVSSYK([AEEA-AEEA-d(βAsp)-Inp-C18 diacid])EGQAARE[2Nal]IEWLVKGRG-NH2; N-terminus assumed)
  EC50: 800 to 2000 nM

## CC[C@H](C)[C@H](NC(=O)[C@H](Cc1ccccc1)NC(=O)[C@H](CCC(=O)O)NC(=O)[C@H](CCCNC(=N)N)NC(=O)[C@H](C)NC(=O)[C@H](C)NC(=O)[C@H](CCC(N)=O)NC(=O)[C@H](CCC(=O)O)NC(=O)[C@H](CCC(=O)O)NC(=O)[C@H](CC(C)C)NC(=O)[C@H](Cc1ccc(O)cc1)NC(=O)[C@H](CO)NC(=O)[C@H](CO)NC(=O)[C@@H](NC(=O)[C@H](CC(=O)O)NC(=O)[C@H](CO)NC(=O)[C@@H](NC(=O)[C@H](Cc1ccccc1)NC(=O)[C@@H](NC(=O)CNC(=O)[C@H](CCC(=O)O)NC(=O)C(C)(C)NC(=O)[C@@H](N)Cc1c[nH]cn1)[C@@H](C)O)[C@@H](C)O)C(C)C)C(=O)N[C@@H](CCC(=O)O)C(=O)N[C@@H](Cc1c[nH]c2ccccc12)C(=O)N[C@@H](CC(C)C)C(=O)N[C@H](C(=O)N[C@@H](CCCCN)C(=O)NCC(=O)N[C@@H](CCCNC(=N)N)C(=O)N1CCC[C@H]1C(=O)N[C@@H](CCCCNC(=O)COCCOCCNC(=O)CC[C@H](NC(=O)CC[C@H](NC(=O)CCCNC(=O)CCCS(=O)(=O)NC(=O)CCCCCCCCCCCCCCCc1nnn[nH]1)C(=O)O)C(=O)O)C(=O)O)C(C)C [Example 51, [Aib8,Glu22,Arg26,Glu30,Pro37]GLP-1-(7-37)Lys [2-(2-{2-[4-Carboxy-4-(4-carboxy-4-{4-[4-(16-1H-tetrazol-5-yl-hexadecanoylsulfamoyl)butyrylamino]butyrylamino}butyrylamino)butyrylamino]ethoxy}ethoxy)acetyl]] (H-H[Aib]EGTFTSDVSSYLEEQAAREFIEWLVKGRPK([AEEA-γGlu-γGlu-GABA-X1])-OH)
  EC50 at 20 h: 150 to 300 nM

## CC[C@H](C)[C@H](NC(=O)[C@H](Cc1ccccc1)NC(=O)[C@H](CCC(=O)O)NC(=O)[C@H](CCCNC(=N)N)NC(=O)[C@H](C)NC(=O)[C@H](C)NC(=O)[C@H](CCC(N)=O)NC(=O)[C@H](CCC(=O)O)NC(=O)[C@H](CCC(=O)O)NC(=O)[C@H](CC(C)C)NC(=O)[C@H](Cc1ccc(O)cc1)NC(=O)[C@H](CO)NC(=O)[C@H](CO)NC(=O)[C@@H](NC(=O)[C@H](CC(=O)O)NC(=O)[C@H](CO)NC(=O)[C@@H](NC(=O)[C@H](Cc1ccccc1)NC(=O)[C@@H](NC(=O)CNC(=O)[C@H](CCC(=O)O)NC(=O)[C@H](C)NC(=O)CCc1c[nH]cn1)[C@@H](C)O)[C@@H](C)O)C(C)C)C(=O)N[C@@H](C)C(=O)N[C@@H](Cc1c[nH]c2ccccc12)C(=O)N[C@@H](CC(C)C)C(=O)N[C@H](C(=O)N[C@@H](CCCNC(=N)N)C(=O)NCC(=O)N[C@@H](CCCNC(=N)N)C(=O)NCC(=O)N[C@@H](CCCCNC(=O)COCCOCCNC(=O)CC[C@H](NC(=O)COCCOCCNC(=O)CC[C@H](NC(=O)C1CCN(C(=O)CCCCCCCCCCCCCCCCCCC(=O)O)CC1)C(=O)O)C(=O)O)C(=O)O)C(C)C [Example 58, [DesaminoHis7,Glu22,Arg26,34]-GLP-1 (7-37)-Lys-(2-(2-{2-[(S)-4-carboxy-4-(2-{2-[2-((S)-4-carboxy-4-{[1-(19-carboxynonadecanoyl)piperidine-4-carbonyl]amino}butyrylamino)ethoxy]ethoxy}acetylamino)butyrylamino]ethoxy}ethoxy)acetyl) peptide] (Desaminohistidyl-AEGTFTSDVSSYLEEQAAREFIAWLVRGRGK([AEEA-γGlu-AEEA-γGlu-Inp-C20 diacid])-OH)
  EC50 at 20 h: 100 to 150 nM
